20 molecules from patent US8420657B2 (Novartis AG, priority 2008, dated 2013) can be followed below.

One assay has as its target T1, GST-JAK2(808-1132) (Homo sapiens, UniProt O60674).
T1 construct: GST-JAK2(808-1132); purchased Invitrogen (Carlsbad, USA) #4288
The assay is described as follows: JAK2 kinase assay (Caliper mobility shift, LabChip 3000). The format is biochemical. In outline:
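Recombinant GST-JAK2(808-1132) kinase domain with FITC-labelled JAK3tide peptide substrate and ATP; 60 min at 30 °C, EDTA stop. Substrate/product ratio read by microfluidic mobility shift; compounds at 8 final concentrations, 10 to 0.003 μM.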

Assay [1] has as its system JAK1/JAK2-dependent nuclear translocation of STAT1-GFP in HT1080 fibrosarcoma cells. Briefly: STAT1 nuclear translocation assay (Cellomics), IFN-γ stimulated HT1080 STAT1-GFP cells. The format is cell-based. As to conditions: Homo sapiens, HT-1080, STAT1 translocation pathway. An excerpt: The medium-throughput (96-well format) cellular automated fluorescence microscopy Cellomics assay can be routinely used to assess the functional activation of Janus Kinases (JAKs), based on the nuclear translocation of their substrate, Signal Transducer and Activator of Transcription (STAT). Nuclear translocation can be monitored either in HT1080 fibrosarcoma cells stably transfected with STAT1 fused to Green Fluorescence Protein (GFP) or in U-2 OS osteosarcoma cells stably transfected with STAT5 fused to Green Fluorescence Protein (GFP). Stimulation of HT1080 cells with interferon-γ (IFN-γ) results in JAK1/JAK2-dependent nuclear translocation of STAT1-GFP, whereas stimulation of U-2 OS cells with recombinant human erythropoietin (rhEpo) results in JAK2-dependent nuclear translocation of STAT5-GFP, both of which can be quantified using the Cellomics Cyto/NucTrans software package. This assay may be used to provide an assessment of the nuclear-cytoplasmic differential (NCD) of STAT-GFP using Hoechst dye to define the boundaries of the nucleus.
HT1080 fibrosarcoma cells may be obtained from ATCC and can be cultured in alpha Modified Eagle Medium with 10% FCS. Cells can be transfected with pEGFP-N2 STAT1 using Fugene 6 Transfection Reagent following the manufacturers' protocol. 24 hours after transfection the medium can be replaced and selected in 1 mg/ml Geneticin.
Compounds can be dissolved in DMSO to a final stock concentration of 10 mM and stored as aliquots at 4° C. Compounds may be pre-diluted in 100% DMSO at 10 mM, 3 mM 1 mM, 0.3 mM, 0.1 mM, 0.03 mM, 0.01 mM and 0.003 mM. Subsequently, compounds may be diluted in medium and added in 50 μl to the cells. The final compound concentrations tested may be 10 μM, 3 μM 1 μM, 0.3 μM, 0.1 μM, 0.03 μM, 0.01 μM and 0.003 μM and the final DMSO concentration can be 0.1%.
HT1080 STAT1-GFP cells may be seeded at a density of 10,000 cells per well in clear-bottom black 96-well Packard View-Plates™. 16-24 hours later, the cells can be treated for 2 hours with 100 ng/ml IFN-γ, washed twice in pre-warmed PBS and fixed in 200 μl of pre-warmed fixation solution (PBS, 3.7% Formaldehyde) for 10 minutes. The plates may be washed twice in 200 μl PBS and incubated, protected from light, in 100 μl of DNA-staining solution (PBS, 0.5 μg/ml Hoechst-33342) for 1 minute. The plates may then be washed once in PBS, and 200 μl PBS finally added per well. The plates, being finally covered with a black adhesive, may be either read directly or stored at 4° C. for later imaging. Where appropriate, the compounds may be added 30 min before stimulation with IFN-γ.
The plates can be read on a Cellomics® ArrayscanII automated fluorescence microscope plate reader equipped with a Mercury-Xenon white light illumination source and a Zeiss Axiovert inverted microscope, using the XF100 dichroic/emission filter cube and matching excitation filters, 10× magnification, and a 0.3 numerical aperture objective. Image acquisition and analysis can be performed using a customized protocol based on the ‘NuclearTranslocation’ Bioapplication. For each well, multiple images (fields) can be acquired until a minimum of 1000 cells are counted using two 2 channels: Channel 1 (Hoechst)=focus+nuclear mask, Channel 2 (GFP)=signal quantification in mask areas as outlined below. Nuclei may be first identified based on the Hoechst staining and a mask generated for each nucleus that then serves as a template to generate a circle (eroded inwards by 1 pixel) and a 3 pixel-wide collar-like ring (off-set outwards by 1 pixel), in which the nuclear and cytoplasmic intensity of GFP, respectively, are quantified in the corresponding channel. High content analysis yields numerous measurements per cell and the GFP intensity differential between the nuclear and the cytoplasmic masks may be chosen as a measure of sub-cellular STAT-GFP relocation. The resulting values may be averaged for all cells in the well to return a single measurement plus standard deviation. […]

T1 sequence (O60674 808-1132): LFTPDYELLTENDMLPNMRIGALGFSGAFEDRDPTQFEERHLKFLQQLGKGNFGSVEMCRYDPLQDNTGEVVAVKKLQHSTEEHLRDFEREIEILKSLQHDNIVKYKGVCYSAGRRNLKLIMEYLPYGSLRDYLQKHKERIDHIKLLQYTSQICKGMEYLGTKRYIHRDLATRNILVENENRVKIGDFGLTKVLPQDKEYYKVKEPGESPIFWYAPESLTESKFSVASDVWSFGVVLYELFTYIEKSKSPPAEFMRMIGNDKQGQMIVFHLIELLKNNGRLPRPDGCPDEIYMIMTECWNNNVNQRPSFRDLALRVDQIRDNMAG

By IC50 is commonly meant the midpoint of a concentration-inhibition curve. On to `O=C(c1ccc(-n2ccc3cnc(Nc4ccc(CN5CCOCC5)cc4)nc32)cc1F)N1CCOCC1` [Example 288, {2-Fluoro-4-[2-(4-morpholin-4-ylmethyl-phenylamino)-pyrrolo[2,3-d]pyrimidin-7-yl]-phenyl}-morpholin-4-yl-methanone], for which the IC50 at GST-JAK2(808-1132) is under 3 nM; in assay [1] it was 67.5 nM.

For `O=C(c1ccc(Nc2ncc3ccn(-c4ccc(CN5CCOCC5)c(F)c4)c3n2)cc1)N1CCOCC1` [Example 157, {4-[7-(3-Fluoro-4-morpholin-4-ylmethyl-phenyl)-7H-pyrrolo[2,3-d]pyrimidin-2-ylamino]-phenyl}-morpholin-4-yl-methanone], the values for the IC50 (at GST-JAK2(808-1132); in assay [1]) were 6.1 nM and 130 nM, respectively.

Turning to `CS(=O)(=O)c1ccc(-n2ccc3cnc(Nc4ccc(F)c(C(F)(F)F)c4)nc32)cc1` [Example 80, (4-Fluoro-3-trifluoromethyl-phenyl)-[7-(4-methanesulfonyl-phenyl)-7H-pyrrolo[2,3-d]pyrimidin-2-yl]-amine], the IC50 on GST-JAK2(808-1132) was 430 nM; in assay [1] it was 10000 nM.

In the case of `CC(C)Oc1ccc(Nc2ncc3ccn(-c4ccc(C(=O)N5CCOCC5)c(Cl)c4)c3n2)cc1` [Example 99, {2-Chloro-4-[2-(4-isopropoxy-phenylamino)-pyrrolo[2,3-d]pyrimidin-7-yl]-phenyl}-morpholin-4-yl-methanone], the values for the IC50 (at GST-JAK2(808-1132); in assay [1]) were 3.9 nM and 555 nM, respectively.

Turning to `CN1CCN(c2cc(Nc3ncc4ccn(-c5cc(F)c(C(=O)N6CCOCC6)c(F)c5)c4n3)ccn2)CC1` [Example 243, (2,6-Difluoro-4-{2-[2-(4-methyl-piperazin-1-yl)-pyridin-4-ylamino]-pyrrolo[2,3-d]pyrimidin-7-yl}-phenyl)-morpholin-4-yl-methanone], the IC50 at GST-JAK2(808-1132) was under 3 nM; in assay [1], 225 nM.

For `Fc1cc(-n2ccc3cnc(Nc4ccc(CN5CCNC6(CC6)C5)cc4)nc32)cc(F)c1CN1CCOCC1` [Example 256], the IC50 at GST-JAK2(808-1132) was under 3 nM; in assay [1], 115 nM.

Turning to `O=C(c1c(F)cc(-n2ccc3cnc(Nc4ccccc4)nc32)cc1F)N1CCOCC1` [Example 214, [2,6-Difluoro-4-(2-phenylamino-pyrrolo[2,3-d]pyrimidin-7-yl)-phenyl]-morpholin-4-yl-methanone], the IC50 worked out at 5.1 nM at GST-JAK2(808-1132) and 643 nM in assay [1].

As for `COc1ccc(Nc2ncc3ccn(-c4ccc(S(C)(=O)=O)cc4)c3n2)cn1` [Example 230, [7-(4-Methanesulfonyl-phenyl)-7H-pyrrolo[2,3-d]pyrimidin-2-yl]-(6-methoxy-pyridin-3-yl)-amine], the concentration for half-maximal inhibition (IC50) at GST-JAK2(808-1132) is 20.5 nM; in assay [1] it was 2480 nM.

For `Cc1ccc(Nc2ncc3ccn(-c4ccc(C(=O)N5CCOCC5)cc4)c3n2)cc1C` [Example 169, {4-[2-(3,4-Dimethyl-phenylamino)-pyrrolo[2,3-d]pyrimidin-7-yl]-phenyl}-morpholin-4-yl-methanone], the IC50 at GST-JAK2(808-1132) amounted to 4.3 nM; in assay [1], 93 nM.

Consider `O=S1(=O)CCN(Cc2c(F)cc(-n3ccc4cnc(Nc5ccncc5)nc43)cc2F)CC1` [Example 183, {7-[4-(1,1-Dioxido-thiomorpholin-4-ylmethyl)-3,5-difluoro-phenyl]-7H-pyrrolo[2,3-d]pyrimidin-2-yl}-pyridin-4-yl-amine], for which the figures for the IC50 (on GST-JAK2(808-1132); in assay [1]) were 3.3 nM and 95 nM, respectively.

As to `O=S1(=O)CCN(Cc2c(F)cc(-n3ccc4cnc(Nc5ccccn5)nc43)cc2F)CC1` [Example 181, {7-[4-(1,1-Dioxido-thiomorpholin-4-ylmethyl)-3,5-difluoro-phenyl]-7H-pyrrolo[2,3-d]pyrimidin-2-yl}-pyridin-2-yl-amine], the IC50 at GST-JAK2(808-1132) was 15.5 nM; in assay [1], 16600 nM.

On to `CN1CCN(C(=O)c2ccc(Nc3ncc4ccn(-c5ccc(S(C)(=O)=O)cc5)c4n3)cc2F)CC1` [Example 71, {2-Fluoro-4-[7-(4-methanesulfonyl-phenyl)-7H-pyrrolo[2,3-d]pyrimidin-2-ylamino]-phenyl}-(4-methyl-piperazin-1-yl)-methanone], for which the IC50 on GST-JAK2(808-1132) came to 6.8 nM; in assay [1], 362 nM.

As for `COc1cc(Nc2ncc3ccn(-c4ccc(S(C)(=O)=O)cc4)c3n2)cc(OC)c1OC` [Example 4, [7-(4-Methanesulfonyl-phenyl)-7H-pyrrolo[2,3-d]pyrimidin-2-yl]-(3,4,5-trimethoxy-phenyl)-amine], the IC50 was found to be 2.2 nM on GST-JAK2(808-1132) and 36.7 nM in assay [1].

For the molecule `O=C(c1c(F)cc(-n2ccc3cnc(Nc4ccccn4)nc32)cc1F)N1CCOCC1` [Example 215, {2,6-Difluoro-4-[2-(pyridin-2-ylamino)-pyrrolo[2,3-d]pyrimidin-7-yl]-phenyl}-morpholin-4-yl-methanone], the IC50 on GST-JAK2(808-1132) was determined as 420 nM; in assay [1], 10000 nM.

With `CCOc1ccc(Nc2ncc3cc(C)n(-c4ccc(CC(=O)N5CCS(=O)(=O)CC5)c(F)c4)c3n2)cc1OCC` [Example 286, 2-{4-[2-(3,4-Diethoxy-phenylamino)-6-methyl-pyrrolo[2,3-d]pyrimidin-7-yl]-2-fluoro-phenyl}-1-(1,1-dioxido-thiomorpholin-4-yl)-ethanone], the IC50 at GST-JAK2(808-1132) amounted to 10.6 nM; in assay [1] it was 285 nM.

`COCCn1cc(Nc2ncc3ccn(-c4cc(F)c(CN5CCOCC5)c(F)c4)c3n2)cn1` [Example 252, [7-(3,5-Difluoro-4-morpholin-4-ylmethyl-phenyl)-7H-pyrrolo[2,3-d]pyrimidin-2-yl]-[1-(2-methoxy-ethyl)-1H-pyrazol-4-yl]-amine]: the IC50 on GST-JAK2(808-1132) is 3.3 nM; in assay [1], 340 nM.

Turning to `CC(C)Oc1ccc(Nc2ncc3ccn(-c4ccc(CC(=O)N5CCN(C)CC5)cc4)c3n2)cc1` [Example 101, 2-{4-[2-(4-Isopropoxy-phenylamino)-pyrrolo[2,3-d]pyrimidin-7-yl]-phenyl}-1-(4-methyl-piperazin-1-yl)-ethanone], the IC50 at GST-JAK2(808-1132) was under 3 nM; in assay [1] it was 180 nM.

Turning to `CC(=O)N1CCN(Cc2ccc(Nc3ncc4ccn(-c5cc(F)c(CN6CCNC(=O)C6)c(F)c5)c4n3)cc2)CC1` [Example 339, 4-(4-{2-[4-(4-Acetyl-piperazin-1-ylmethyl)-phenylamino]-pyrrolo[2 3-d]pyrimidin-7-yl}-2,6-difluoro-benzyl)-piperazin-2-one], the IC50 at GST-JAK2(808-1132) was 3.7 nM; in assay [1], 285 nM.

In the case of `CC(C)Oc1ccc(Nc2ncc3ccn(-c4cc(F)c(CN5CCOCC5)c(F)c4)c3n2)cc1` [Example 126, [7-(3,5-Difluoro-4-morpholin-4-ylmethyl-phenyl)-7H-pyrrolo[2,3-d]pyrimidin-2-yl]-(4-isopropoxy-phenyl)-amine], the IC50 on GST-JAK2(808-1132) is 11 nM; in assay [1], 1620 nM.

Regarding `C[C@@H]1CN[C@@H](C)CN1c1ccc(Nc2ncc3ccn(-c4cc(F)c(CN5CCOCC5)c(F)c4)c3n2)cn1` (racemic) [Example 271, [7-(3,5-Difluoro-4-morpholin-4-ylmethyl-phenyl)-7H-pyrrolo[2,3-d]pyrimidin-2-yl]-[6-((2R,5S)-2,5-dimethyl-piperazin-1-yl)-pyridin-3-yl]-amine], the IC50 is 3.1 nM on GST-JAK2(808-1132) and 65 nM in assay [1].
